Drawing on US20250032477A1, “COMPOUNDS, PHARMACEUTICAL COMPOSITIONS, AND METHODS FOR THE TREATMENT, PREVENTION, OR MANAGEMENT OF HYPERPROLIFERATIVE DISORDERS” (VINCERX PHARMA GMBH, priority 2021, published 2025), this text covers AC50 and IC50 for 5 compounds.

Molecules are shown by their SMILES. Structures can show the parent of a compound that is named as a salt. Where two headings read alike, the source gives them in different places.

For experiment [1], the system named is SUM149. Briefly: Cytotoxicity assay (Version 2), automated, AC50, with or without elastase. It is filed as cell-based. The method, then:
(§1) Cultivation of cells was performed according to standard procedures with the media recommended by the provider. The cells, in a total volume of 100 μL, were seeded in a 96-well plate with a white bottom (#3610). After a 24 h incubation period at 37° C. and […], the medium was exchanged by adding 90 μL fresh medium. The treatment started by adding the test compound in 10 μL of culture medium to the cells in triplicates. Concentrations ranging from 10^−5 M to 10^−13 M were chosen. Two identically treated sets of samples were prepared. One set was treated with the test compound alone, whereas to the second set the compound and 10 nM elastase was added followed by a 72 h incubation period at 37° C. and 5% CO2. The proliferation was detected using the MTT assay (ATCC). At the end of the incubation period the MTT reagent was added to all samples for 4 h. Lysis of the cells followed by addition of the detergent was done overnight. The formed dye was detected at 570 nm. The proliferation of untreated but otherwise identically handled cells was define as the […].
(§2) The Cytotoxicity assay (Version 2) was performed as above described. Some changes were applied as the assays were performed in an automated fashion and the IC50 values determination was changed. Here the change in metabolic activity of the cells, in percent, was calculated by normalization of the measured values to the absorbance values of medium containing wells without cells (=−100%) and the absorbance of the DMSO-treated cells (=0%). AC50 values (activity concentration at −50%) were determined by means of a 4 parameter Hill-fit using GeneData Screener software.

In experiment [2] the test system is 786-O. Briefly: Cytotoxicity in vitro in the presence and absence of elastase (MTT). The class given is cell-based, human. The method, then:
as §1

Experiment [3] deals with NCI H292. The experiment is described as above. The class given is cell-based, human. The protocol: as §1
Experiment [4] deals with HT29. The description is as above. It is filed as cell-based, human. The protocol: as §1
Experiment [5] deals with 786-O. Briefly: Cytotoxicity assay (Version 2), automated, AC50, with or without elastase. The class given is cell-based, human. The method, then: as §1, §2
Experiment [6] deals with NCI H292. Described as above. The class given is cell-based, human. The method, then:
as §1, §2

The test system of experiment [7] is HT29. Described as above. It is filed as cell-based, human. The protocol: as §1, §2
The test system of experiment [8] is SUM149. Briefly: Cytotoxicity in vitro in the presence and absence of elastase (MTT). It is filed as cell-based. The protocol:
as §1

Setting [9] is: SUM149 cells, Version 2, with elastase, activity concentration at −50%, read-out: SUM149 AC50 +elastase.
The mark [10] stands for this setting: SUM149 cells, Version 2, without elastase, activity concentration at −50%, read-out: SUM149 AC50 −elastase.
Where [11] appears, read: 786-O cells, Version 2, with elastase, activity concentration at −50%, read-out: 786-O AC50 +elastase.
Setting [12] is: 786-O cells, Version 2, without elastase, activity concentration at −50%, read-out: 786-O AC50 −elastase.
The mark [13] stands for this setting: NCI H292 cells, Version 2, with elastase, activity concentration at −50%, read-out: NCI H292 AC50 +elastase.
Where [14] appears, read: NCI H292 cells, Version 2, without elastase, activity concentration at −50%, read-out: NCI H292 AC50 −elastase.
[15] abbreviates: HT29 cells, Version 2, with elastase, activity concentration at −50%, read-out: HT29 AC50 +elastase.
Where [16] appears, read: HT29 cells, Version 2, without elastase, activity concentration at −50%, read-out: HT29 AC50 −elastase.
The mark [17] stands for this setting: read-out: SUM149 AC50 +elastase.
Setting [18] is: read-out: SUM149 AC50 −elastase.
[19] abbreviates: read-out: NCI H292 AC50 +elastase.
The mark [20] stands for this setting: read-out: NCI H292 AC50 −elastase.

As usually defined, the AC50 is the concentration giving half of the maximal activity seen.

As for `CCCNC(=O)Nc1cccc(S(=O)(=O)Nc2cccc([C@@H](CC(=O)O)NC(=O)Nc3ccc(NC(=O)NCCOCCOCCOCCC(=O)N[C@@H](CC(=O)O)C(=O)N4CCC[C@H]4C(=O)N[C@H](C(=O)O[C@]4(CC)C(=O)OCc5c4cc4n(c5=O)Cc5c-4nc4cc(F)c(C)c6c4c5[C@@H](N)CC6)C(C)C)cc3)c2)c1` [Compound 4b, disodium (1S,9S)-1-amino-9-ethyl-5-fluoro-4-methyl-10,13-dioxo-2,3,9,10,13,15-hexahydro-1H,12H-benzo[de]pyrano[3′,4′:6,7]indolizino[1,2-b]quinolin-9-yl 1-{(2S)-2-(carboxylatomethyl)-17-[4-({[(1R)-2-carboxylato-1-{3-[({3-[(propylcarbamoyl)amino]phenyl}sulfonyl)amino]phenyl}ethyl]carbamoyl}amino)anilino]-4,17-dioxo-7,10,13-trioxa-3,16-diazaheptadecan-1-oyl}-L-prolyl-L-valinate], the AC50 is under 1 nM in experiment [1] (setting [9]); 11 to 100 nM in experiment [1] (setting [10]); 1.1 to 10 nM in experiment [5] (setting [11]); over 100 nM in experiment [5] (setting [12]); 1.1 to 10 nM in experiment [6] (setting [13]); over 100 nM in experiment [6] (setting [14]). Moreover, the AC50 in experiment [7] (setting [15]) was 1.1 to 10 nM; in experiment [7] (setting [16]), over 100 nM. For the same compound, the IC50 lay in the range of 0.01 to 0.1 nM in experiment [2] (786-O cells, with 10 nM elastase, 72 h, MTT, read-out: 786-O IC50 w elastase); 10 to 100 nM in experiment [2] (786-O cells, without elastase, 72 h, MTT, read-out: 786-O IC50 w/o); 0.01 to 0.1 nM in experiment [3] (NCI H292 cells, with 10 nM elastase, 72 h, MTT, read-out: NCI H292 IC 50 w elastase); 1.1 to 10 nM in experiment [3] (NCI H292 cells, without elastase, 72 h, MTT, read-out: NCI H292 IC 50 w/o); 0.1 to 1 nM in experiment [4] (HT29 cells, with 10 nM elastase, 72 h, MTT, read-out: HT29 IC50 w elastase); 10 to 100 nM in experiment [4] (HT29 cells, without elastase, 72 h, MTT, read-out: HT29 IC50 w/o). Besides, the IC50 in experiment [8] (SUM149 cells, with 10 nM elastase, 72 h, MTT, read-out: SUM149 IC50 w elastase) was under 0.01 nM; in experiment [8] (SUM149 cells, without elastase, 72 h, MTT, read-out: SUM149 IC50 w/o), 1.1 to 10 nM.
Turning to `CCCNC(=O)Nc1cccc(S(=O)(=O)Nc2cccc([C@@H](CC(=O)O)NC(=O)Nc3ccc(NC(=O)NCCOCCOCCOCCC(=O)N[C@@H](CC(=O)O)C(=O)N4CCC[C@H]4C(=O)N[C@H](C(=O)O[C@]4(CC)C(=O)OCc5c4cc4n(c5=O)Cc5cc6cc7c(cc6nc5-4)OCO7)C(C)C)cc3)c2)c1` [Compound 5, (7S)-7-ethyl-8,11-dioxo-7,8,11,13-tetrahydro-2H,10H-[1,3]dioxolo[4,5-g]pyrano [3′,4′:6,7]indolizino[1,2-b]quinolin-7-yl N-(14-{4-[({(1R)-2-carboxy-1-[3-({3-[(propylcarbamoyl)amino]benzene-1-sulfonyl}amino)phenyl]ethyl}carbamoyl)amino]anilino}-14-oxo-4,7,10-trioxa-13-azatetradecanan-1-oyl)-L-alpha-aspartyl-L-prolyl-L-valinate-bis sodium salt], the AC50 in experiment [1] (setting [17]) was under 1 nM; in experiment [1] (setting [18]) it was 11 to 100 nM; in experiment [5] (read-out: 786-O AC50 +elastase) it was 1.1 to 10 nM; in experiment [5] (read-out: 786-O AC50 −elastase), over 100 nM; in experiment [6] (setting [19]) it was under 1 nM; in experiment [6] (setting [20]), over 100 nM. The AC50 in experiment [7] (read-out: HT29 AC50 +elastase) is 1.1 to 10 nM; in experiment [7] (read-out: HT29 AC50 −elastase), over 100 nM. Moreover, the IC50 is under 0.01 nM in experiment [2] (read-out: 786-O IC50 w elastase); 1.1 to 10 nM in experiment [2] (read-out: 786-O IC50 w/o); under 0.01 nM in experiment [3] (read-out: NCI H292 IC 50 w elastase); 1.1 to 10 nM in experiment [3] (read-out: NCI H292 IC 50 w/o); under 0.01 nM in experiment [4] (read-out: HT29 IC50 w elastase); 10 to 100 nM in experiment [4] (read-out: HT29 IC50 w/o). Moreover, the IC50 is under 0.01 nM in experiment [8] (read-out: SUM149 IC50 w elastase) and 1.1 to 10 nM in experiment [8] (read-out: SUM149 IC50 w/o).
Consider `CCCNC(=O)Nc1cccc(S(=O)(=O)Nc2cccc([C@@H](CC(=O)O)NC(=O)Nc3ccc(NC(=O)NCCOCCOCCOCCC(=O)N[C@@H](CC(=O)O)C(=O)N4CCC[C@H]4C(=O)N[C@H](C(=O)O[C@]4(CC)C(=O)OCc5c4cc4n(c5=O)Cc5c-4nc4cc(F)c(C)c6c4c5[C@@H](N(C)C)CC6)C(C)C)cc3)c2)c1` [Compound 20, (1S,9S)-1-(dimethylamino)-9-ethyl-5-fluoro-4-methyl-10,13-dioxo-2,3,9,10,13,15-hexahydro-1H,12H-benzo[de]pyrano[3′,4′:6,7]indolizino[1,2-b]quinolin-9-yl N-(14-{4-[({(1R)-2-carboxy-1-[3-({3-[(propylcarbamoyl)amino]benzene-1-sulfonyl}amino)phenyl]ethyl}carbamoyl)amino]anilino}-14-oxo-4,7,10-trioxa-13-azatetradecanan-1-oyl)-L-alpha-aspartyl-L-prolyl-L-valinate], for which the half-maximal activity concentration (AC50) in experiment [1] (setting [9]) is 1.1 to 10 nM; in experiment [1] (setting [10]) it was over 100 nM; in experiment [5] (setting [11]), 1.1 to 10 nM; in experiment [5] (setting [12]) it was over 100 nM; in experiment [6] (setting [13]) it was 1.1 to 10 nM; in experiment [6] (setting [14]) it was over 100 nM. The results for the AC50 in experiment [7] (setting [15]) and in experiment [7] (setting [16]) were 11 to 100 nM and over 100 nM, respectively.
With `CCCNC(=O)Nc1cccc(S(=O)(=O)Nc2cccc([C@@H](CC(=O)O)NC(=O)Nc3ccc(NC(=O)NCCOCCOCCOCCC(=O)NCCCC[C@H](NC(=O)CCOCCOCCOCCNC(=O)Nc4ccc(NC(=O)N[C@H](CC(=O)O)c5cccc(NS(=O)(=O)c6cccc(NC(=O)NCCC)c6)c5)cc4)C(=O)NCCOCCOCCOCCC(=O)N[C@@H](CC(=O)O)C(=O)N4CCC[C@H]4C(=O)N[C@H](C(=O)O[C@]4(CC)C(=O)OCc5c4cc4n(c5=O)Cc5cc6cc7c(cc6nc5-4)OCO7)C(C)C)cc3)c2)c1` [Compound 22], the concentration at half-maximal activity (AC50) is under 1 nM in experiment [1] (setting [17]); 11 to 100 nM in experiment [1] (setting [18]); under 1 nM in experiment [5] (read-out: 786-O AC50 +elastase); over 100 nM in experiment [5] (read-out: 786-O AC50 −elastase); under 1 nM in experiment [6] (setting [19]); 1.1 to 10 nM in experiment [6] (setting [20]). In addition, the AC50 in experiment [7] (read-out: HT29 AC50 +elastase) was 1.1 to 10 nM; in experiment [7] (read-out: HT29 AC50 −elastase), over 100 nM.
Consider `CCCNC(=O)Nc1cccc(S(=O)(=O)Nc2cccc([C@@H](CC(=O)O)NC(=O)Nc3ccc(NC(=O)NCCOCCOCCOCCC(=O)NCCCC[C@H](NC(=O)CCOCCOCCOCCNC(=O)Nc4ccc(NC(=O)N[C@H](CC(=O)O)c5cccc(NS(=O)(=O)c6cccc(NC(=O)NCCC)c6)c5)cc4)C(=O)NCCOCCOCCOCCC(=O)N[C@@H](CC(=O)O)C(=O)N4CCC[C@H]4C(=O)N[C@H](C(=O)O[C@]4(CC)C(=O)OCc5c4cc4n(c5=O)Cc5c-4nc4cc(F)c(C)c6c4c5[C@@H](NC(C)=O)CC6)C(C)C)cc3)c2)c1` [Compound 24], for which the AC50 in experiment [1] (setting [17]) is 1.1 to 10 nM; in experiment [1] (setting [18]), 11 to 100 nM; in experiment [5] (read-out: 786-O AC50 +elastase), 1.1 to 10 nM; in experiment [5] (read-out: 786-O AC50 −elastase), over 100 nM; in experiment [6] (setting [19]) it was 1.1 to 10 nM; in experiment [6] (setting [20]), over 100 nM. In addition, the AC50 was 11 to 100 nM in experiment [7] (read-out: HT29 AC50 +elastase) and over 100 nM in experiment [7] (read-out: HT29 AC50 −elastase).
